Type in all cases: cell-based
One experiment relates to Stat3. In words: Stat3 luciferase reporter assay (IL-6 induced). Particulars: Homo sapiens, HeLa cells. As to the method:
(§1) Hela cells from ATCC were plated in white opaque 384 well plates at a density of 4300 cells/well in 30 µL of a growth medium (DMEM with 10% FBS and 1% Pen/step). The next day, the medium was aspirated and replaced with DMEM containing 10% FBS. The cells were transfected with respective plasmids using the X-tremeGENE HP transfection reagent (Roche). Luciferase vectors used in this assay are summarized in Table S2, Supporting Information. After 24 h of transfection, the test agents were added to the transfected cells, followed 30 min later by an inducing agent (IL-6 for Stat 3, TGF-beta for Smad, m-wnt3a for Wnt and PMA for AP-1, NF-kB, E2F, Myc, ETS, Notch and Hedgehog). No inducer was added for FoXO, miR-21, and […]. After 4 h or 6 h of induction, the cells were lysed by the addition of the One-Glo luciferase assay system (Promega, Madison, WI, USA). The light output was detected in a Glomax Multi+ detection system with the Instinct Software (Promega, Madison, WI, USA). This luciferase assay determines if the test agent was able to inhibit the activation of cancer-related signaling pathways. In the case of FoxO and mi-R21, the enhanced luciferase activity by the test agent was assessed.
For orientation: A reporter such as luciferase makes a cellular process visible.

Another experiment has as its system miR-21. Kind of experiment: miR-21 luciferase reporter assay (no inducer). Particulars: Homo sapiens, HeLa cells, 6 h, read-out: percentage of luciferase induction mi-R21/No Induction. As for the experimental part:
as §1

A further experiment has as its system NF-κB. In words: NF-κB luciferase reporter assay (PMA induced). Particulars: HeLa cells. As for the experimental part: as §1
A further experiment concerns Hedgehog. Kind of experiment: Hedgehog luciferase reporter assay (PMA induced). Particulars: Homo sapiens, HeLa cells, compared to pTK as control, 6 h, read-out: percentage of luciferase induction Hdghog/PMA. As for the experimental part: as §1
In experiment [1] the test system is cancer-related signaling pathways in HeLa cells. Kind of experiment: Panel of luciferase reporter genes for cancer-related signaling pathways. Particulars: HeLa cells; 30 µM. As to the method:
as §1
The simulated gastric fluid was prepared as described in the United States Pharmacopoeia (USP, 1995) and consists of 0.2% w/v of NaCl and 0.7% v/v of hydrochloric acid at pH 1.2. Aliquots (48 µL) of SGF were placed in 1.5-mL microcentrifuge tubes and incubated in a water bath at 37 °C [35]. In addition, 2 µL of compound 6 (10 mg/mL in DMSO) was added to each of the SGF vials to start the digestion reaction. The incubation was continued for 60 min and the digestion was stopped with 150 µL of ice-cold cell culture media. The digested samples were used for the cytotoxicity and luciferase assays at different concentrations and the activities were compared between the untreated and SGF treated peptide samples.

For another experiment, the system named is Notch. Kind of experiment: Notch luciferase reporter assay (PMA induced). Particulars: Homo sapiens, HeLa cells, compared to pTK as control, 6 h, read-out: percentage of luciferase induction Notch/PMA. As for the experimental part: as §1
Another experiment deals with pTK control vector. In words: pTK control vector luciferase assay (minimal thymidine kinase promoter). Particulars: Homo sapiens, HeLa cells, no inducer, read-out: percentage of luciferase induction pTK/No Induction. As to the method:
as §1

Another experiment deals with E2F. In words: E2F luciferase reporter assay (PMA induced). Particulars: Homo sapiens, HeLa cells, compared to pTK as control, 4 h, read-out: percentage of luciferase induction E2F/PMA. As to the method: as §1
In another experiment the test system is Ap-1. In words: AP-1 luciferase reporter assay (PMA induced). Particulars: HeLa cells, compared to pTK as control, 4 h, read-out: percentage of luciferase induction Ap-1/PMA. As to the method: as §1
The subject of a further experiment is FoxO. Kind of experiment: FoxO luciferase reporter assay (no inducer). Particulars: Homo sapiens, HeLa cells, 6 h, read-out: percentage of luciferase induction FoxO/No Induction. As for the experimental part: as §1
Another experiment relates to Ets. In words: Ets luciferase reporter assay (PMA induced). Particulars: Homo sapiens, HeLa cells. As for the experimental part:
as §1

Another experiment has as its system Smad. In words: Smad luciferase reporter assay (TGF-beta induced). Particulars: Homo sapiens, HeLa cells. As to the method: as §1
The test system of another experiment is Wnt. In words: Wnt luciferase reporter assay (m-wnt3a induced). Particulars: Homo sapiens, HeLa cells. As to the method: as §1
The test system of a further experiment is Myc. In words: Myc luciferase reporter assay (PMA induced). Particulars: Homo sapiens, HeLa cells. As to the method: as §1
[2] abbreviates: compared to pTK as control, 4 h, read-out: percentage of luciferase induction Stat3/IL-6.
The mark [3] stands for this setting: Homo sapiens, compared to pTK as control, 4 h, read-out: percentage of luciferase induction NF-kB/PMA.
Where [4] appears, read: compared to pTK as control, 4 h, read-out: percentage of luciferase induction Ets/PMA.
[5] abbreviates: compared to pTK as control, 4 h, read-out: percentage of luciferase induction Smad/TGF-β.
The mark [6] stands for this setting: compared to pTK as control, 6 h, read-out: percentage of luciferase induction Wnt/m-wnt 3a.
Setting [7] is: compared to pTK as control, 4 h, read-out: percentage of luciferase induction Myc/PMA.

Consider four compounds from PMC7866972, “Crosstalk of Cancer Signaling Pathways by Cyclic Hexapeptides and Anthraquinones from Rubia cordifolia” (Molecules, 2021).

Bounds are passed on as bounds.

`O=C1c2ccccc2C(=O)c2c(O)c(O)cc(O)c21` [Compound 2, purpurin]: the activity at 30 µM in the experiment on Stat3 (setting [2]) worked out at 102%; in the experiment on miR-21, 259%; in the experiment with NF-κB (setting [3]) it was 65%; with Hedgehog it was 152%; in the experiment with Notch, 194%; with pTK control vector, 198%. Besides, the activity at 30 µM in the experiment on E2F was 190%; in the experiment on Ap-1 it was 73%; in the experiment with FoxO, 94%; in the experiment with Ets (setting [4]), 103%; in the experiment on Smad (setting [5]), 163%; in the experiment with Wnt (setting [6]) it was 77%. In addition, the activity at 30 µM in the experiment with Myc (setting [7]) is 61%. Also, the “activity towards the signaling pathways (in words)” value in experiment [1] is recorded as “least active among these three anthraquinones”.
In the case of `Cc1cc(O)c2c(c1)C(=O)c1cc(O)cc(O)c1C2=O` [Compound 3, emodin], the activity at 30 µM came out at 48% with Stat3 (setting [2]); 309% with miR-21; 45% with NF-κB (setting [3]); 42% with Hedgehog; 424% in the experiment on Notch; 144% in the experiment with pTK control vector. The activity at 30 µM in the experiment on E2F was 144%; in the experiment on Ap-1, 45%; in the experiment with FoxO, 112%; in the experiment with Ets (setting [4]), 53%; in the experiment on Smad (setting [5]), 46%; with Wnt (setting [6]), 11%. The activity at 30 µM in the experiment on Myc (setting [7]) was 46%. In addition, in experiment [1], the “activity towards the signaling pathways (in words)” value is “inhibited the activation of several pathways with Wnt being the most sensitive”.
By inhibition is commonly meant the percentage by which the read-out fell short of the control. Take `CC1(C)CCC2=C(O1)C(=O)c1ccccc1C2=O` [Compound 15, α-lapachone, reference compound]: the activity at 5 µM was determined as 22% in the experiment with Stat3 (5 µM, compared to pTK as control, 4 h, read-out: percentage of luciferase induction Stat3/IL-6); 127% in the experiment with miR-21 (5 µM); 44% in the experiment with NF-κB (Homo sapiens, 5 µM, compared to pTK as control, 4 h, read-out: percentage of luciferase induction NF-kB/PMA); 86% in the experiment with Hedgehog (5 µM); 85% with Notch (5 µM); 97% with pTK control vector (5 µM). For the same compound, the activity at 5 µM with E2F (5 µM) worked out at 82%; with Ap-1 (5 µM), 88%; in the experiment with FoxO (5 µM) it was 100%; in the experiment with Ets (5 µM, compared to pTK as control, 4 h, read-out: percentage of luciferase induction Ets/PMA), 45%; in the experiment on Smad (5 µM, compared to pTK as control, 4 h, read-out: percentage of luciferase induction Smad/TGF-β), 27%; in the experiment on Wnt (5 µM, compared to pTK as control, 6 h, read-out: percentage of luciferase induction Wnt/m-wnt 3a) it was 53%. For the same compound, in the experiment on Myc (5 µM, compared to pTK as control, 4 h, read-out: percentage of luciferase induction Myc/PMA), the activity at 5 µM is 44%. Also, the inhibition at 5 µM in the experiment with Stat3 (5 µM, read-out: inhibition of Stat3 induction) is greater than 50%; with Ets (5 µM, read-out: inhibition of ETS induction), greater than 50%; in the experiment with Smad (5 µM, read-out: inhibition of Smad induction), greater than 50%; in the experiment on Wnt (5 µM, read-out: inhibition of Wnt induction), greater than 50%; in the experiment on Myc (5 µM, read-out: inhibition of Myc induction) it was greater than 50%. Further, the “inhibition of NF-kB induction” value in the experiment with NF-κB (5 µM) was “more than 50%”.
Consider `O=C1c2ccccc2C(=O)c2c1ccc(O)c2O` [Compound 1, alizarin], for which the activity at 30 µM in the experiment on Stat3 (setting [2]) came to 81%; in the experiment on miR-21, 141%; with NF-κB (setting [3]), 60%; in the experiment on Hedgehog it was 57%; in the experiment on Notch, 106%; with pTK control vector, 116%. The activity at 30 µM came out at 172% in the experiment with E2F; 87% with Ap-1; 69% with FoxO; 66% with Ets (setting [4]); 109% in the experiment with Smad (setting [5]); 46% with Wnt (setting [6]). For the same compound, in the experiment on Myc (setting [7]), the activity at 30 µM came out at 61%. Further, the “activity towards the signaling pathways (in words)” value in experiment [1] was “selective inhibition of Wnt and Hedgehog signaling pathways”.
